Test results reported in patent US10501748B2, “Methods and compositions for integration of an exogenous sequence within the genome of plants” (Dow AgroSciences LLC, priority 2013, dated 2019).

Tests used:
[1] = test system: scutella of cv. Bobwhite MPB26RH and cv. Clearfield Janz (N653/N653); assay: basal tolerance/resistance to IMAZAMOX at the callus induction stage; assay type: cell-based, Triticum aestivum
Protocol: The basal tolerance of the donor wheat line cv. Bobwhite MPB26RH and basal resistance of cv. Clearfield Janz (N653/N653) genotype to IMAZAMOX® at the callus induction stage was determined as follows: Scutella of immature zygotic embryos from each wheat line were isolated as described previously and placed in 10 cm PETRI™ dishes containing CIM medium supplemented with 0, 50, 100, 200, 300, 400 and 500 nM IMAZAMOX® respectively. Twenty scutella were placed in each PETRI™ dish. A total of 60 scutella from each of the donor wheat line cv. Bobwhite MPB26RH and cv. Clearfield Janz genotype were tested for basal tolerance and basal resistance response, respectively, at each IMAZAMOX® concentration. After incubation at 24° C. in the dark for 4 weeks, the amount of somatic embryogenic callus formation (SEC) at each IMAZAMOX® concentration was recorded. […] Bobwhite MPB26RH was reduced by about 70% at 100 nM IMAZAMOX®, compared to untreated samples. Callus formation for the cv. Clearfield Janz genotype was unaffected, relative to the untreated control, at any IMAZAMOX® concentrations tested.

[2] = test system: somatic embryogenic callus of cv. Bobwhite MPB26RH; assay: basal tolerance to IMAZAMOX at the plant regeneration stage; assay type: cell-based, Triticum aestivum; details: 200 nM, 2 weeks, compared to untreated samples
Protocol: The basal tolerance of the donor wheat line cv. Bobwhite MPB26RH to IMAZAMOX® at the plant regeneration stage was determined as follows: Scutella of immature zygotic embryos from the donor wheat line were isolated as described previously and placed in 10 cm PETRI™ dishes containing CIM medium. Somatic embryogenic callus was allowed to form by incubating at 24° C. in the dark for 4 weeks. The SEC was transferred to 10 cm PETRI™ dishes containing DRM medium supplemented with 0, 100, 200, 300, 400, 500 and 1000 nM IMAZAMOX® respectively. Twenty CIM were placed in each PETRI™ dish. A total of 60 CIM were tested for basal tolerance response at each IMAZAMOX® concentration. After incubation for 2 weeks at 24° C. under a 16/8 (light/dark) hour photoperiod in a growth room, the regeneration response was recorded.

[3] = test system: regenerated plants of cv. Bobwhite MPB26RH; assay: basal tolerance to IMAZAMOX at the plant rooting stage; assay type: in vivo, Triticum aestivum; details: all concentrations tested (100-500 nM), 3 weeks
Protocol: The basal tolerance of the donor wheat line cv. Bobwhite MPB26RH to IMAZAMOX® at the plant rooting stage was determined as follows: Scutella of immature zygotic embryos from the donor wheat line were isolated as described previously and placed in 10 cm PETRI™ dishes containing CIM medium. Somatic embryogenic callus was allowed to form by incubating at 24° C. in the dark for 4 weeks. The SEC was transferred to 10 cm PETRI™ dishes containing DRM medium and incubated for 2 weeks at 24° C. under a 16/8 (light/dark) hour photoperiod to allow plant regeneration to take place. Regenerated plants were transferred to 10 cm PETRI™ dishes containing RM medium supplemented with 0, 100, 200, 300, 400, 500 nM IMAZAMOX®, respectively. Twenty regenerated plants were placed in each PETRI™ dish. A total of 60 regenerated plants were tested for basal tolerance response at each IMAZAMOX® concentration. After incubation for 3 weeks at 24° C. under a 16/8 (light/dark) hour photoperiod in a growth room, the root formation response was recorded.

[4] = test system: cv. Clearfield Janz (S653/S653) and (N653/N653) plants; assay: basal tolerance/resistance to IMAZAMOX at the plant rooting stage, modified approach; assay type: in vivo, Triticum aestivum; details: 2 weeks
Protocol: The basal tolerance of the cv. Clearfield Janz (S653/S653) genotype and basal resistance of the cv. Clearfield Janz (N653/N653) genotype to IMAZAMOX® at the plant rooting stage was determined using a modified approach, as cv. […] Seed for each cv. Clearfield Janz genotype was germinated using the aseptic approach described above for producing wheat mesophyll protoplasts. The germinated seedlings were multiplied in vitro by sub-culturing on multiplication medium. Following multiplication, plants for each genotype were transferred to 10 cm PETRI™ dishes containing plant rooting medium (½ MS, 0.5 mg/L NAA, 0.8% agar) supplemented with 0, 50, 100, 200 and 250 nM IMAZAMOX®, respectively. Three plants were placed in each PETRI™ dish. A total of 6 plants per genotype were tested for basal response at each IMAZAMOX® concentration. After incubation for 2 weeks at 24° C. under a 16/8 (light/dark) hour photoperiod in a growth room, the root formation response was recorded.
Clearfield Janz (N653/N653) genotype was restricted, compared to untreated samples, at 250 nM IMAZAMOX®. […] Clearfield Janz (S653/S653) genotype at all concentrations of IMAZAMOX® tested, compared to untreated samples.

[5] = test system: cv. Clearfield Janz (S653/S653) and (N653/N653) plants; assay: basal tolerance/resistance to IMAZAMOX at the plant regeneration stage, modified approach (plant growth); assay type: in vivo, Triticum aestivum; details: 3 weeks
Protocol: The basal tolerance of the cv. Clearfield Janz (S653/S653) genotype and basal resistance of the cv. Clearfield Janz (N653/N653) genotype to IMAZAMOX® at the plant regeneration stage was determined using a modified approach, as cv. […] Seed for each cv. Clearfield Janz genotype was germinated using the aseptic approach described above for producing wheat mesophyll protoplasts. The germinated seedlings were multiplied in vitro by sub-culturing on multiplication medium. Following multiplication, plants for each genotype were transferred to 10 cm PETRI™ dishes containing plant growth medium (MS+10 μM BA+0.8% agar) supplemented with 0, 100, 300, 600, 900, 1200, 1500 and 3000 nM IMAZAMOX®, respectively. Ten plants were placed in each PETRI™ dish. A total of 30 plants per genotype were tested for basal response at each IMAZAMOX® concentration. After incubation for 3 weeks at 24° C. under a 16/8 (light/dark) hour photoperiod in a growth room, the growth response was recorded. […] This response was similar to that observed for the cv. Bobwhite MPB26RH (S653/S653) genotype. In contrast, plant growth for the cv.

## COCc1cnc(C2=NC(C)(C(C)C)C(=O)N2)c(C(=O)O)c1 (centres unmarked) [IMAZAMOX]
[1]; cv. Bobwhite MPB26RH, 100 nM, 4 weeks, compared to untreated samples
  reduction of SEC formation: about 70%
[1]; cv. Clearfield Janz (N653/N653), any concentration tested (50-500 nM)
  callus formation relative to untreated control: unaffected
[2]
  reduction of plant regeneration: about 80%
[3]
  root formation compared to untreated samples: severely restricted
[4]; cv. Clearfield Janz (N653/N653), 250 nM
  root formation compared to untreated samples: restricted
[4]; cv. Clearfield Janz (S653/S653), all concentrations tested (50-250 nM)
  root formation compared to untreated samples: severely restricted
[5]; cv. Clearfield Janz (N653/N653)
  concentration above which plant growth was strongly suppressed: exceeded 2,000 nM
[5]; cv. Clearfield Janz (S653/S653), medium containing at least 200 nM
  plant growth compared to untreated samples: severely reduced
